Assay results taken from patent publication US4388236A, “Enkephalin-like compounds in bovine adrenal medulla” (Hoffmann-La Roche Inc., priority 1982, dated 1983).
“And” between values parts separate entries of the source, which are not always exact repeats. Equal entries are not always repeated. “Also recorded” adds a separate entry of the source. No end group written: not given here.

Experiments:
[1] = system: mice; assay: Tail flick response (analgesic assay); assay type: in vivo; design: tail flick response, Prior Injection Time (Control) Predose / tail flick response, Post Injection Time 2 min.: unit not given here; details: for tail flick response, Prior Injection Time (Control) Predose / tail flick response, Post Injection Time 5 / Response (analgesic activity) / tail flick response, Post Injection Time 10 / tail flick response, Post Injection Time 2 min.: individual mice; for tail flick response, Prior Injection Time (Control) Predose: before intracerebral ventrical injection; for tail flick response, Post Injection Time 5 / Response (analgesic activity) / tail flick response, Post Injection Time 10 / tail flick response, Post Injection Time 2 min. / No. of Mice Responsive/Total No. of Mice: intracerebral ventrical, Beta-endorphin 4.5nm, Arg6-Phe7 met-enkephalin 6 n moles; for tail flick response, Post Injection Time 5 / Response (analgesic activity) / tail flick response, Post Injection Time 10 / No. of Mice Responsive/Total No. of Mice: Acetylcholine 20ng; for Response (analgesic activity) / tail flick response, Post Injection Time 10 / tail flick response, Post Injection Time 2 min.: Met Enk 120nm
Method: For the analgesic assay, mice were injected (intracerebral ventrical) with 6 n moles of the synthetic peptide (Tyr-Gly-Gly-Phe-Met-Arg-Phe). The tail flick response assay was carried out according to the method of Dayton, et al., Proc. Soc. […] The tail flick response (analgesic activity) was measured prior to injection and at 2,5 and 10 minutes post injection time. Results are tabulated in Table V. Further results are given in Inturris, et. al., Proc. Nat'l. Acad. Sci. (U.S.A.), 77,5512 (1980).

[2] = system: mice; assay: Tail flick response (analgesic assay); assay type: in vivo; design: tail flick response, Prior Injection Time (Control) Predose / tail flick response, Post Injection Time 2 min.: unit not given here; details: individual mice
[3] = target: T1, opiate receptor (Mus musculus, UniProt P32300); assay: Radioreceptor assay (opiate receptor binding activity)
T1 construct: endogenous in cells; host or cells: neuroblastoma x glioma hybrid cells (NG108-15)
From the text: Extracts of bovine adrenal medulla (BAM) or chromaffin granules (CG) therefrom were obtained by conventional methods known in the art and were purified using gel filtration, high pressure liquid chromatography (HPLC) and fluorometric detection by method of Bohlen, P. et al., Anal. Biochem. 67, 437 (1975).
Opioid activities for peaks I-V were quantitatively determined by conventional means in radioreceptor assays before (Native) and after trypsin digestion of each of the peaks from BAM and CG sources.

[4] = system: N-terminal directed Met-enkephalin antibody; assay: Radioimmunoassay with N-terminal directed Met-enkephalin antibody; assay type: binding; details: fractions from RP-18 of peak V; 1.3 g wet weight of chromaffin granules isolated from 30 g of adrenal medulla
Method: (§1) Radioimmunoassays were performed using a C-terminal directed Leu-enkephalinantibody and a N-terminal directed Met-enkephalin antibody. The characteristics of these antibodies and methods of use have been described previously and were followed in Lewis, R. V., et al., Biochem. Biophys. Res. Commun. 89, 822 (1979).

[5] = system: rats; details: intracerebra-ventricular or intravenous administration to rats; cited from earlier work
[6] = system: mice; details: intracerebra-ventricular or intravenous administration to mice; cited from earlier work
[7] = system: C-terminal directed Leu-enkephalin antibody; assay: Radioimmunoassay with C-terminal directed Leu-enkephalin antibody; assay type: binding; details: fractions from RP-18 of peak V; 1.3 g wet weight of chromaffin granules isolated from 30 g of adrenal medulla
Method: as §1

T1 sequence (P32300 whole entry): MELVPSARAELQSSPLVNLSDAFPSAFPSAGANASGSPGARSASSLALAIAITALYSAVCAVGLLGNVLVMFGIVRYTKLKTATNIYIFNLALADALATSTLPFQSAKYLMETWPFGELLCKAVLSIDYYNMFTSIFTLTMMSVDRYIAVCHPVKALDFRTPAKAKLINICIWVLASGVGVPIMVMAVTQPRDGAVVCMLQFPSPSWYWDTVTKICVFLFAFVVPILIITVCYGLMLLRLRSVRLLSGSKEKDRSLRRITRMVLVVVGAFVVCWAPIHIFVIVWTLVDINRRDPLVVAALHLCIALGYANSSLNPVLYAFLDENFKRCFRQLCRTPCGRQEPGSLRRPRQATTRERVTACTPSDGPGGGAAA

Row | Compound | tail flick response, Prior Injection Time (Control) Predose [1] | tail flick response, Post Injection Time 5 [1] | Response (analgesic activity) [1] | tail flick response, Post Injection Time 10 [1] | No. of Mice Responsive/Total No. of Mice [1] | opiate receptor binding activity in radioreceptor assay (in words) [3] | also measured
1 | Beta-endorphin | 4.0 and 4.7 and 4.2 and 5.4 and 4.4 and 4.3 | > 10 and > 9 and 3.4 and 3.1 | Pos. and Neg. | 8 and > 10 and 3.8 | 5/7 |  | tail flick response, Post Injection Time 2 min. [1]: 5.9 and 3.0 and 4.4 and 3.8; tail flick response, Post Injection Time 20 ([2]; intracerebral ventrical, Beta-endorphin 4.5nm): > 10
2 | YGGFMK [F-T-1] |  |  |  |  |  | opiate receptor binding activity | 
3 | CSCC[C@H](NC(=O)[C@H](Cc1ccccc1)NC(=O)CNC(=O)CNC(=O)[C@@H](N)Cc1ccc(O)cc1)C(=O)O [Met-Ek, methionine enkephalin] |  |  | Neg. |  |  |  | Radioreceptor ([3]; fractions from RP-18 of peak V, 1.3 g wet weight of chromaffin granules isolated from 30 g of adrenal medulla): 1.0 nmoles/fraction; N-Terminal radioimmunoassay [4]: 1.0 nmoles/fraction; analgesia [5]: weak and short term analgesia; analgesia [6]: weak and short term analgesia; tail flick response, Prior Injection Time (Control) Predose ([2]; before intracerebral ventrical injection, listed as Met Enk): 4.1 and 5.4 and 4.6; tail flick response, Post Injection Time 10 ([2]; intracerebral ventrical, Met Enk 120nm, Acetylcholine 20ng, Beta-endorphin 4.5nm, Arg6-Phe7 met-enkephalin 6 n moles): 6.3 and 5.9 and 5.0; tail flick response, Post Injection Time 2 min. ([2]; intracerebral ventrical, Met Enk 120nm, Beta-endorphin 4.5nm, Arg6-Phe7 met-enkephalin 6 n moles): 4.0 and 4.7; C-Terminal radioimmunoassay [7]: 0.03 nmoles/fraction
4 | YGGFMR [I-T-1] |  |  |  |  |  | active in the radioreceptor assay at high concentrations | 
5 | YGGFMK [Met-enkephalin-(Lys^6)] |  |  |  |  |  |  | binding to the receptor relative to Met-enkephalin ([3]; from binding curves): 9%
6 | YGGFMR [Met-enkephalin-(Arg^6)] |  |  |  |  |  | active in the radioreceptor assay at high concentrations; also recorded: binds very poorly | binding activity relative to Leu-enkephalin [3]: less than 3%
7 | CC(=O)OCC[N+](C)(C)C [Acetylcholine] | 4.6 and 5.0 and 4.5 | 6.1 and > 10 |  | > 10 | 3/3 |  | 
8 | CC(C)C[C@H](NC(=O)[C@H](Cc1ccccc1)NC(=O)CNC(=O)CNC(=O)[C@@H](N)Cc1ccc(O)cc1)C(=O)O [Leu-Ek, leucine enkephalin] |  |  |  |  |  |  | N-Terminal radioimmunoassay [4]: 0.4 nmoles/fraction; analgesia [5]: weak and short term analgesia; analgesia [6]: weak and short term analgesia; C-Terminal radioimmunoassay [7]: 1.0 nmoles/fraction
9 | YGGFMRF [Arg^6 --Phe^7 met-enkephalin, Tyr-Gly-Gly-Phe-Met-Arg-Phe] | 5.7 and 5.2 and 4.6 and 3.6 and 3.7 and 4.0 | 5.4 and 4.2 and 3.8 and 9.0 and 4.0 | Neg. and Pos. and neg. | 6.3 and 5.8 and > 10 and 5.0 and 4 | 4/8 |  | tail flick response, Post Injection Time 2 min. [1]: 4.9 and 4.6 and 4.3 and 4.0 and 3.4 and 4.5
10 | CSCC[C@H](NC(=O)[C@H](Cc1ccccc1)NC(=O)CNC(=O)CNC(=O)[C@@H](N)Cc1ccc(O)cc1)C(=O)O [F-T-2] |  |  |  |  |  | most active tryptic peptide | 
